The values below come from PubChem BioAssay AID1259407 (Chemical Carcinogenesis Research Information System (CCRIS), 2018).

For this data set, the system named is CCRIS mutagenicity, Ames/micronucleus/aberration tests. Kind of data set: CCRIS mutagenicity studies. As to conditions: Test System: AMES SALMONELLA TYPHIMURIUM
The mark [1] stands for this setting: Strain/Indicator: TA100, Metabolic Activation: NONE, Method: STANDARD PLATE.
The mark [2] stands for this setting: Strain/Indicator: TA98, Metabolic Activation: NONE, Method: STANDARD PLATE.
Setting [3] is: Strain/Indicator: TA100, Metabolic Activation: NONE, Method: PREINCUBATION
Where [4] appears, read: Strain/Indicator: TA98, Metabolic Activation: NONE, Method: PREINCUBATION
[5] abbreviates: Strain/Indicator: TA1535, Metabolic Activation: NONE, Method: PREINCUBATION
[6] abbreviates: Strain/Indicator: TA1537, Metabolic Activation: NONE, Method: PREINCUBATION

Calls of active or inactive are those of the source. How the calls were made is not given here.

As to `COc1cc(OC)c2c(=O)c3c(O)ccc(OC)c3oc2c1`, the mutagenic call is “inactive; negative” (Strain/Indicator: TA97, Metabolic Activation: NONE, Method: PREINCUBATION); “active; positive” (Strain/Indicator: TA97, Metabolic Activation: RAT, LIVER, S-9, PHENOBARBITAL AND 5,6-BENZOFLAVONE, Method: PREINCUBATION); “inactive; negative” (Strain/Indicator: TA98, Metabolic Activation: RAT, LIVER, S-9, PHENOBARBITAL AND 5,6-BENZOFLAVONE, Method: PREINCUBATION); “inactive; negative” (Strain/Indicator: TA100, Metabolic Activation: RAT, LIVER, S-9, PHENOBARBITAL AND 5,6-BENZOFLAVONE, Method: PREINCUBATION); “active; positive” (Strain/Indicator: TA2637, Metabolic Activation: RAT, LIVER, S-9, PHENOBARBITAL AND 5,6-BENZOFLAVONE, Method: PREINCUBATION).
On to `O=Cc1ccc(C(=O)ON(OCc2ccccc2)C(=O)c2ccccc2)cc1`, for which the mutagenic call is, setting by setting: under setting [1], “active; positive”; (Strain/Indicator: TA100, Metabolic Activation: RAT, S-9, AROCLOR, Method: STANDARD PLATE) “active; positive”.
Consider `CC(=O)Oc1ccc(CCl)cc1`, for which the mutagenic call under setting [1] was “active; positive”.
Regarding `N#CCCl`, the mutagenic call is, setting by setting: under setting [2], “inactive; negative”; (Strain/Indicator: TA98, Metabolic Activation: RAT, LIVER, S-9, AROCLOR 1254, Method: STANDARD PLATE) “inactive; negative”; (Strain/Indicator: TA100, Metabolic Activation: NONE, Method: FLUCTUATION TEST) “inactive; negative”; under setting [1], “inactive; negative”; (Strain/Indicator: TA100, Metabolic Activation: RAT, LIVER, S-9, AROCLOR 1254, Method: FLUCTUATION TEST) “active; positive”; (Strain/Indicator: TA100, Metabolic Activation: RAT, LIVER, S-9, AROCLOR 1254, Method: STANDARD PLATE) “inactive; negative”. Also, the mutagenic call was “inactive; negative” (Strain/Indicator: TA1535, Metabolic Activation: NONE, Method: STANDARD PLATE) and “inactive; negative” (Strain/Indicator: TA1535, Metabolic Activation: RAT, LIVER, S-9, AROCLOR 1254, Method: STANDARD PLATE).
On to `COC(=O)c1cc2c([nH]c3ccccc32)c(-c2ccc3c(n2)C(=O)C=CC3=O)n1`, for which the mutagenic call is, setting by setting: under setting [1], “active; positive”; (Strain/Indicator: TA100, Metabolic Activation: RAT, LIVER, S-9, PCB, Method: STANDARD PLATE) “active; positive”.
For `O=C(CBr)c1oc([N+](=O)[O-])c(-c2ccccc2)c1-c1ccccc1`, the mutagenic call is, setting by setting: (Strain/Indicator: TA98(NR), Metabolic Activation: NONE, Method: STANDARD PLATE) “active; positive”; under setting [2], “active; positive”; (Strain/Indicator: TA100(NR), Metabolic Activation: NONE, Method: STANDARD PLATE) “active; positive”; under setting [1], “active; positive”.
`CC/C=C/C=C/C=C/C=C/C=C/OCC(O)c1ccccc1` (stereo unspecified): the mutagenic call under setting [3] was “active; positive”.
Turning to `O=[N+]([O-])c1cc2[nH]c3ccc4ccccc4c3c2c2ccc(O)cc12`, the mutagenic call under setting [2] was “inactive; negative”; the mutagenic call (Strain/Indicator: TA98, Metabolic Activation: RAT, LIVER, S-9, 3-METHYLCHOLANTHRENE, Method: STANDARD PLATE) was “active; positive”; the mutagenic call under setting [1] was “active; positive”; the mutagenic call (Strain/Indicator: TA100, Metabolic Activation: RAT, LIVER, S-9, 3-METHYLCHOLANTHRENE, Method: STANDARD PLATE) is “active; positive”.
`O=C(O)Cc1ccccc1[N+](=O)[O-]`: the mutagenic call is “inactive; negative” under setting [4]; “active; positive” under setting [3]; “active; positive” under setting [5]; “inactive; negative” under setting [6]; “active; positive” (Strain/Indicator: TA1538, Metabolic Activation: NONE, Method: PREINCUBATION).
Take `CN(C)CCCn1cc[n+](C)c1/C=N/O`: the mutagenic call runs as follows: (Strain/Indicator: TA97, Metabolic Activation: NONE, Method: STANDARD PLATE) “inactive; negative”; (Strain/Indicator: TA97, Metabolic Activation: RAT, LIVER, S-9, Method: STANDARD PLATE) “inactive; negative”; under setting [1], “inactive; negative”; (Strain/Indicator: TA100, Metabolic Activation: RAT, LIVER, S-9, Method: STANDARD PLATE) “inactive; negative”; (Strain/Indicator: TA104, Metabolic Activation: NONE, Method: STANDARD PLATE) “inactive; negative”; (Strain/Indicator: TA104, Metabolic Activation: RAT, LIVER, S-9, Method: STANDARD PLATE) “inactive; negative”. For the same compound, the mutagenic call runs as follows: (Strain/Indicator: TA1537, Metabolic Activation: NONE, Method: STANDARD PLATE) “inactive; negative”; (Strain/Indicator: TA1537, Metabolic Activation: RAT, LIVER, S-9, Method: STANDARD PLATE) “inactive; negative”; (Strain/Indicator: TA1538, Metabolic Activation: NONE, Method: STANDARD PLATE) “inactive; negative”; (Strain/Indicator: TA1538, Metabolic Activation: RAT, LIVER, S-9, Method: STANDARD PLATE) “inactive; negative”.
Turning to `O=[N+]([O-])c1ccc2sncc2c1`, the mutagenic call under setting [1] was “active; positive”.
Take `C(=C/c1ccccc1)/c1ccccc1`: the mutagenic call was “inactive; negative” (Strain/Indicator: TA98, Metabolic Activation: HAMSTER, LIVER, S-9, AROCLOR 1254, Method: PREINCUBATION); “inactive; negative” under setting [4]; “inactive; negative” (Strain/Indicator: TA98, Metabolic Activation: RAT, LIVER, S-9, AROCLOR 1254, Method: PREINCUBATION); “inactive; negative” (Strain/Indicator: TA100, Metabolic Activation: HAMSTER, LIVER, S-9, AROCLOR 1254, Method: PREINCUBATION); “inactive; negative” under setting [3]; “inactive; negative” (Strain/Indicator: TA100, Metabolic Activation: RAT, LIVER, S-9, AROCLOR 1254, Method: PREINCUBATION). For the same compound, the mutagenic call was “inactive; negative” (Strain/Indicator: TA1535, Metabolic Activation: HAMSTER, LIVER, S-9, AROCLOR 1254, Method: PREINCUBATION); “inactive; negative” under setting [5]; “inactive; negative” (Strain/Indicator: TA1535, Metabolic Activation: RAT, LIVER, S-9, AROCLOR 1254, Method: PREINCUBATION); “inactive; negative” (Strain/Indicator: TA1537, Metabolic Activation: HAMSTER, LIVER, S-9, AROCLOR 1254, Method: PREINCUBATION); “inactive; negative” under setting [6]; “inactive; negative” (Strain/Indicator: TA1537, Metabolic Activation: RAT, LIVER, S-9, AROCLOR 1254, Method: PREINCUBATION).
In the case of `C=C1C[C@@]23CC[C@H]4[C@@](C)(CCC[C@@]4(C)C(=O)O[C@@H]4O[C@H](CO)[C@@H](O)[C@H](O)[C@H]4O)[C@@H]2CC[C@]1(O[C@@H]1O[C@H](CO)[C@@H](O)[C@H](O)[C@H]1O[C@@H]1O[C@@H](C)[C@H](O)[C@@H](O)[C@H]1O)C3`, under “Strain/Indicator: TM677, Metabolic Activation: RAT, LIVER, S-9, AROCLOR 1254, Method: PREINCUBATION”, the mutagenic call is “inactive; negative”.
